Experimental data published in patent US20250188080A1, “IMIDAZOLONYLQUINOLINE COMPOUNDS AND THERAPEUTIC USES THEREOF” (Merck Patent GmbH, priority 2019, published 2025).
pIC50: −log10 of the molar value.

How the values were obtained:
[1] = molecular target: T1, human ATR/ATRIP (Homo sapiens, UniProt Q13535); experiment: ATR/ATRIP kinase assay; assay type: biochemical
T1 construct: human ATR, full length, GenBank ID: NM_001184.3; host or cells: mammalian cell line (ATR/ATRIP co-expressed); Sf21 insect cells (p53)
Method: The IC50 value was determined by an ATR/ATRIP enzymatic assay. The assay comprises two steps: the enzymatic reaction and the detection step. First, a mixture of ATR/ATRIP protein (Ataxia Telangiectasia and Rad3-related protein/ATR interacting protein), the compound in question at different concentrations, p53 as substrate protein and adenosine triphosphate (ATP) are incubated in assay buffer. ATR phosphorylates p53 at Ser15 and other residues. The amount of phosphorylated p53 is then detected using specific antibodies and the TR-FRET assay technology.
In detail: The ATR/ATRIP enzymatic assay is performed as a TR-FRET-(HTRF™, Cisbio Bioassays) based 384-well assay. In a first step, purified human recombinant ATR/ATRIP (human ATR, full length, GenBank ID: NM_001184.3, and human ATRIP, full length, GenBank ID AF451323.1, co-expressed in a mammalian cell line) is incubated in assay buffer for 15 minutes at 22° C. with test compound at different concentrations or without test compound (as a negative control). The assay buffer contains 25 mM HEPES pH 8.0, 10 mM Mg(CH3COO)2, 1 mM MnCl2, 0.1% BSA, 0.01% Brij® 35, and 5 mM dithiothreitol (DTT). […] The generation of phosphorylated p53 as a result of the ATR mediated reaction in the presence of ATP is detected by using specific antibodies [labeled with the fluorophores europium (Eu) as donor and d2 as acceptor (Cisbio Bioassays)] enabling FRET. […] Following signal development for 2 h the plates are analyzed in an EnVision (PerkinElmer) microplate reader using the TRF mode with laser excitation. Upon excitation of the donor europium at 340 nm the emitted fluorescence light of the acceptor d2 at 665 nm as well as from the donor Eu at 615 nm are measured. The amount of phosphorylated p53 is directly proportional to the ratio of the amounts of emitted light i.e. the ratio of the relative fluorescence units (rfu) at 665 nm and 615 nm. […] In particular, IC50 values are determined in the usual manner by fitting a dose-response curve to the data points using nonlinear regression analysis.

[2] = molecular target: T2, human phosphodiesterase-4D2 (Homo sapiens, UniProt Q08499); experiment: PDE4D2 assay (Cerep); assay type: biochemical
T2 construct: purchased Cerep 4077; host or cells: Sf9 cells
Method: (§1) A commercially available assay of Cerep was used (Catalog ref. 4077; SOP no 1C1045) The assay is designed to evaluate the effects of test compounds on the activity of the human phosphodiesterase-4D2 quantified by measuring the formation of 5′AMP from cAMP using a human recombinant enzyme expressed in Sf9 cells.
The test compound, reference compound or water (control) are added to a buffer containing 40 mM Tris/HCl (pH 7.4) and 8 mM MgCl2, 450 nM cAMP and 0.0125 μCi [^3H]cAMP.
Thereafter, the reaction is initiated by addition of the enzyme (about 1.5 U) and the mixture is incubated for 20 min at 22° C.
(§2) For basal control measurements, the enzyme is omitted from the reaction mixture.
Following incubation SPA (scintillation proximity assay) beads are added.
(§3) After 30 min at 22° C. under shaking, the amount of [^3H]5′AMP is quantified with a scintillation counter (Topcount, Packard).
(§4) The results are expressed as a percent inhibition of the control enzyme activity.
(§5) The standard inhibitory reference compound is Ro 20-1724, which is tested in each experiment at several concentrations to obtain an inhibition curve from which its IC50 value is calculated.

[3] = molecular target: T3, human phosphodiesterase-4A1A (Homo sapiens, UniProt P27815); experiment: PDE4A1A assay (Cerep); assay type: biochemical
T3 construct: purchased Cerep 4074; host or cells: Sf9 cells
Method: as §1, with “4074;” for “4077;”, “1C1056), which” for “1C1045) The assay”, “of” for “of test”, “phosphodiesterase-4A1A” for “phosphodiesterase-4D2”
The test compound, reference compound or water (control) are added to a buffer containing 40 mM Tris/HCl (pH 7.4) and 8 mM MgCl2, 450 nM cAMP and 0.25 μCi [^3H]cAMP.
Thereafter, the reaction is initiated by addition of the enzyme (about 10 U) and the mixture is incubated for 20 min at 22° C.
as §2
Following incubation SPA beads are added.
as §3, §4, §5

[4] = system: pCHK1 (Cellular mechanistic ATR, HCT-116); experiment: pCHK1 cellular assay; assay type: cell-based, human
[5] = Homo sapiens, HCT-116, HCT-116 as printed in the table

T3 sequence (P27815 1-647 isoform P27815-4): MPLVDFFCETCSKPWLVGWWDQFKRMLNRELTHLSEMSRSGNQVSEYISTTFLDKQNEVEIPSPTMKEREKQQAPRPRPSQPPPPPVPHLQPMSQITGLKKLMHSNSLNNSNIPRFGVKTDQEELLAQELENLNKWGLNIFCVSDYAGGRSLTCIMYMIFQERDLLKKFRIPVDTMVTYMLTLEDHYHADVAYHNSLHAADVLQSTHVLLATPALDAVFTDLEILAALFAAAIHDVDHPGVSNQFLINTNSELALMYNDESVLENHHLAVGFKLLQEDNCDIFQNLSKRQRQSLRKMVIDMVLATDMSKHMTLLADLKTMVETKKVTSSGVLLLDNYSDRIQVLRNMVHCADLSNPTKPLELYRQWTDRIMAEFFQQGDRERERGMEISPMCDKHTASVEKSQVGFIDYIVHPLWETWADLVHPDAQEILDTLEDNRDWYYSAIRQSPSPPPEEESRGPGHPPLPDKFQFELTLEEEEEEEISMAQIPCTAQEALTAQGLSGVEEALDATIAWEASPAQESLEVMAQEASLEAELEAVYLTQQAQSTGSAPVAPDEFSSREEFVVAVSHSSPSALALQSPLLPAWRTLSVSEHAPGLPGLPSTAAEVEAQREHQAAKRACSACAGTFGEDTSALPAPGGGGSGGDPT
T1 sequence (Q13535 whole entry): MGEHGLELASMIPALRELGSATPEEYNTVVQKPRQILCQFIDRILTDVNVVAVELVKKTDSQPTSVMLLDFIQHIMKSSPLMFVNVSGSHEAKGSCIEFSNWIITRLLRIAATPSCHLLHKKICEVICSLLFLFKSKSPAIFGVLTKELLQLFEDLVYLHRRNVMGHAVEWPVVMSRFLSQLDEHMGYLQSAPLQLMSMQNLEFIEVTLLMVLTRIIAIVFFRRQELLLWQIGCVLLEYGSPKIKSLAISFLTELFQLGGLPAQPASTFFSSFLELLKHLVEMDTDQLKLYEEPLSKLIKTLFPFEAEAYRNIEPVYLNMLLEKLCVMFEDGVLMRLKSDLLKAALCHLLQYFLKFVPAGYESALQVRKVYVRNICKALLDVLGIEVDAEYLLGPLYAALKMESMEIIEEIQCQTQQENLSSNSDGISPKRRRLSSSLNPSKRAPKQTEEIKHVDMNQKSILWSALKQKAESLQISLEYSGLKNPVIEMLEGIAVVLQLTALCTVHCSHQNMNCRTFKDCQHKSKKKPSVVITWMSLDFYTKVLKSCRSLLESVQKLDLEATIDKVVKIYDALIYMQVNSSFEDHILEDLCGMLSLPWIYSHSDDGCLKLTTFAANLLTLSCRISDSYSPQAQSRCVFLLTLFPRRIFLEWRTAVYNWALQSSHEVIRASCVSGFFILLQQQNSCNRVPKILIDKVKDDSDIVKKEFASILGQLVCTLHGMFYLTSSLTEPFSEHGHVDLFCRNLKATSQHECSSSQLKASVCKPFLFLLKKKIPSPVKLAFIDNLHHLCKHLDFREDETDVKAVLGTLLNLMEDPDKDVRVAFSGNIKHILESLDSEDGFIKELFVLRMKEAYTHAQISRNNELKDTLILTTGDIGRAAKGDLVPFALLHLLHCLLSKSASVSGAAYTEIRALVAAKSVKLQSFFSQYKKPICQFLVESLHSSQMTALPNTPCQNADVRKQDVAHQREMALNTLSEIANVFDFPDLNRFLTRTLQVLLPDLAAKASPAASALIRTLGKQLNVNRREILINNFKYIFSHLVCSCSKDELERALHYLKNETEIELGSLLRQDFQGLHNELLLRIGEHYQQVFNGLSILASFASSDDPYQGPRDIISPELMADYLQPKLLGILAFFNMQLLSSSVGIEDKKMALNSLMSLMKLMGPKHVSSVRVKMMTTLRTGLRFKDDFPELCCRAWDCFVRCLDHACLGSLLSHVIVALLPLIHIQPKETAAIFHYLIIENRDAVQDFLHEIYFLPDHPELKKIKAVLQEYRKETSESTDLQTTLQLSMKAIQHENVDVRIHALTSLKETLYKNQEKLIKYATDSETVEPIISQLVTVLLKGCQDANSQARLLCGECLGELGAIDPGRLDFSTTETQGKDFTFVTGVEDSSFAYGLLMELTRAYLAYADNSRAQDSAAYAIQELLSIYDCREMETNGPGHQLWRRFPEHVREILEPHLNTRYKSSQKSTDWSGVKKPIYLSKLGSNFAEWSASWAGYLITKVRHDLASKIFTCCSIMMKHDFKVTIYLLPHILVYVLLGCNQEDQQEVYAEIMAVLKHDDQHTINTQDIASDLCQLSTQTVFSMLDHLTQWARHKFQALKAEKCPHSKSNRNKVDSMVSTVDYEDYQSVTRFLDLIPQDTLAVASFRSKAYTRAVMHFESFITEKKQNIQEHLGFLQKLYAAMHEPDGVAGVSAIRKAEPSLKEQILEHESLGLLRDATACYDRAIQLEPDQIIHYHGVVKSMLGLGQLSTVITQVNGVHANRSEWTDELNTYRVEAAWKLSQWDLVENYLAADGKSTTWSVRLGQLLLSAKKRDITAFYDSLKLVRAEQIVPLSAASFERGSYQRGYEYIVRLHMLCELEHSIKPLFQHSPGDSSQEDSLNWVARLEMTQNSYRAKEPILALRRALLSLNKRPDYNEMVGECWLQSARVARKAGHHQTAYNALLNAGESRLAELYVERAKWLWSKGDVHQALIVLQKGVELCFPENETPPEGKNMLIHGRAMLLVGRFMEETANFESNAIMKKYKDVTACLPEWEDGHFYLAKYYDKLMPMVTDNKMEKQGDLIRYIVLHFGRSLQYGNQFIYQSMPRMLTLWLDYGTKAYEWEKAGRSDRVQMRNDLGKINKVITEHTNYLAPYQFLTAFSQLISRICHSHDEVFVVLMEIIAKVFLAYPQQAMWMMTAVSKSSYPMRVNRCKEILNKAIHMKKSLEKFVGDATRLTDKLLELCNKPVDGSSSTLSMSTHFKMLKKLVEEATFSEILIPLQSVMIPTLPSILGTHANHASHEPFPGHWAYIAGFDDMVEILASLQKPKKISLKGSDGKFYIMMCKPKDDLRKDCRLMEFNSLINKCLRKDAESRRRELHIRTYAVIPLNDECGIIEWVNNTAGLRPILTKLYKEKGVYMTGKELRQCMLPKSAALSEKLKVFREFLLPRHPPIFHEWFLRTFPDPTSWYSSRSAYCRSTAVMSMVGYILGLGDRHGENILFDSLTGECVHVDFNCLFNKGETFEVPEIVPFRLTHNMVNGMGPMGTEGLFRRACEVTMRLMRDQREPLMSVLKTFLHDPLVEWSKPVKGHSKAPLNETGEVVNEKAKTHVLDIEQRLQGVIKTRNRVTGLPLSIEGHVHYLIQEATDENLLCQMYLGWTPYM
T1 sequence (Q8WXE1 whole entry partner): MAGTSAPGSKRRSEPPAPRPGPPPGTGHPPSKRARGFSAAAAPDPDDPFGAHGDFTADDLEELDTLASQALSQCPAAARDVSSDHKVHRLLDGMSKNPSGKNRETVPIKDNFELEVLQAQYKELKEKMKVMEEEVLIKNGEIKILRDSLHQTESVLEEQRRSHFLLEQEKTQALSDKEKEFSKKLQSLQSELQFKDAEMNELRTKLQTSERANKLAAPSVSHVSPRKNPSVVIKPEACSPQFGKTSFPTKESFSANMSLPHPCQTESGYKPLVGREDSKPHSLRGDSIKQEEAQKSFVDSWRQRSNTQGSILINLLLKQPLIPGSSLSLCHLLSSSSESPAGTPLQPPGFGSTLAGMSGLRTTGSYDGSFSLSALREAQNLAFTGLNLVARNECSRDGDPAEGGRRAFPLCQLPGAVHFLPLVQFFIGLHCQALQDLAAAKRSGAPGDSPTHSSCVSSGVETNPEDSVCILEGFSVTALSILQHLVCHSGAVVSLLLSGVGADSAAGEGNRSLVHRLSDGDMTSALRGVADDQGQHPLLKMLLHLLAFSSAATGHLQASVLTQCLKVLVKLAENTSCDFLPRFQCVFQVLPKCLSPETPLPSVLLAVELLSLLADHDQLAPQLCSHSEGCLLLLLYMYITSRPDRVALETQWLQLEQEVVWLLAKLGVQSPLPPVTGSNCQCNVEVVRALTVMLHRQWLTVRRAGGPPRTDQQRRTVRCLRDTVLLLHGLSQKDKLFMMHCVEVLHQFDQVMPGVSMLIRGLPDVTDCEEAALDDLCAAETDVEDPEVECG
T2 sequence (Q08499 303-809 limits assumed): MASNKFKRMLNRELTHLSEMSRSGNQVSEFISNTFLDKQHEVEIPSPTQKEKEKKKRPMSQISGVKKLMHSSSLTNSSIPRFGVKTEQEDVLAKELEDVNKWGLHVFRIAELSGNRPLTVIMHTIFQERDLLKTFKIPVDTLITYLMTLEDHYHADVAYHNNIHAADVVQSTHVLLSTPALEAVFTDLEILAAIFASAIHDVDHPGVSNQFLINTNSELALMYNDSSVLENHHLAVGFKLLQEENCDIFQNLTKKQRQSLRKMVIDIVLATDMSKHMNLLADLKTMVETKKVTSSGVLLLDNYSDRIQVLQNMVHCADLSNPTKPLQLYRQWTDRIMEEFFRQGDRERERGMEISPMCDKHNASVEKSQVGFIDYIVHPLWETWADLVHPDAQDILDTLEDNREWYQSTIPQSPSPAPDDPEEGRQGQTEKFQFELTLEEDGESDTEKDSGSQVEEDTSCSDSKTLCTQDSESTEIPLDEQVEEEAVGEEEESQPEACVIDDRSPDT

Row | SMILES | pIC50 [1] | pIC50 [2] | pIC50 [3] | pIC50 ([4]; HCT-116) | pIC50 [4, 5]
1 | COc1cc2ncc3c(c2cc1-c1cn(C)nc1C)n(-c1c(F)cncc1OC)c(=O)n3C (single isomer, unassigned) [Compound 2, 8-(1,3-Dimethyl-1H-pyrazol-4-yl)-1-(Ra)-(3-fluoro-5-methoxy-pyridin-4-yl)-7-methoxy-3-methyl-1,3-dihydro-imidazo[4,5-c]quinolin-2-one] | < 4.55 | 6.36 | 6.03 | < 4.52 | –
2 | COc1cc2ncc3c(c2cc1-c1cn(C)nc1C)n(-c1c(F)cncc1OC)c(=O)n3C (single isomer, unassigned) [Compound 1, 8-(1,3-Dimethyl-1H-pyrazol-4-yl)-1-(Sa)-(3-fluoro-5-methoxy-pyridin-4-yl)-7-methoxy-3-methyl-1,3-dihydro-imidazo[4,5-c]quinolin-2-one] | 5.00 | 5.52 | 5.28 | – | ≤ 4.62
3 | COc1cc2ncc3c(c2cc1-c1cn(C)nc1C)n(-c1c(F)cncc1OC)c(=O)n3C [Compound Y, 8-(1,3-dimethyl-1H-pyrazol-4-yl)-1-(3-fluoro-5-methoxypyridin-4-yl)-7-methoxy-3-methyl-1,3-dihydroimidazo[4,5-c]quinolin-2-one, reference compound] | 5.30 | 6.22 | 5.96 | – | 5.10
